Assay results reported in PMC3337405 (Cancer Chemotherapy and Pharmacology, 2012).

Tests used:
[1] = system: patients with ASM, mast cell leukemia, or systemic mastocytosis; details: 100 mg twice daily; 26 patients; preliminary results; cited from earlier work
[2] = Plasma pharmacokinetics, noncompartmental analysis; details: human, plasma, 75 mg; for Cmax: mean (SD)
Experimental: Blood samples for PK analysis were collected predose and 0.5, 1, 2, 3, 4, 8, 12, and 24 h post dose on days 1 and 3 at the same time as ECG assessments. […] Noncompartmental analysis (WinNonlin™ version 5.2, Pharsight, Sunnyvale, California) was performed to determine the following PK parameters: C max, T max, minimum (trough) plasma concentration over a dosing interval (C min), and AUC calculated using a trapezoidal method. For moxifloxacin, the AUC from time 0 to the last measurable concentration sampling time was calculated (AUC0–tlast).

healthy volunteers [3] = experiment: Outlier analysis of QTc and other ECG parameters, ECG morphology; type: in vivo, human; details: for QTcB >30 ms, time-matched change from baseline, participants: text: 30- to 60-ms category
Experimental: Outlier analysis for QTc was also exploratory because this study was not powered to detect individuals with genetic sensitivity to potential QT-prolonging drugs. The nonspecific outlier criterion was a change from baseline in QTc interval of 30–60 ms.
(§1) Standard triplicate 12-lead ECGs were obtained at 9 time points over 24 h at baseline on day 3 and at 2 time points on day 1. Electrocardiogram analysis was performed at a blinded central reading facility (ERT, East Bridgewater, NJ) in digital format, with paper tracings obtained and archived immediately on site. Vital signs were assessed daily. Clinical laboratory parameters were assessed at baseline and at the end of study. Self-reported adverse events were continuously recorded from the first study treatment (placebo, day −1) through the end of study on day 4.

healthy volunteers [4] = experiment: Thorough QT/QTc study: QTcF change from baseline on day 3 (12-lead ECG); type: in vivo, human; details: for QTcF change from time-matched baseline, Difference (Midostaurin – Placebo) / Upper bound of the one-sided 95% CI of Difference (Midostaurin – Placebo) in QTcF change: day 3; for QTcF change on day 3 from time-matched baseline: midostaurin arm
Source text: This study was a phase I, randomized, double-blind, placebo- and active-controlled, 3-way, parallel-group study conducted at a single center in the United States and approved by the Arkansas Research Medical Testing, LLC, Institutional Review Board. The design followed the recommendations of the International Conference on Harmonisation of Technical Requirements for Registration of Pharmaceuticals for Human Use (ICH) E14 guideline on “The Clinical Evaluation of QT/QTc Interval Prolongation and Proarrhythmic Potential for Non-Antiarrhythmic Drugs” [19]. As such, the trial included a concurrent positive control group and addressed intrinsic variability by conducting multiple ECGs at baseline and during the study. The study was conducted according to the ethical principles of the Declaration of Helsinki, and written informed consent was obtained from each subject during screening.
The treatment regimen was selected to achieve maximal plasma exposure for QTc evaluation while minimizing the risks of excessive or prolonged exposure in healthy volunteers.
The baseline comparison was from day −1 to day 3 at matched time points.
The following hypothesis was tested to confirm that the study had sufficient assay sensitivity: [drawing 3] [drawing 4] where μmoxi(t) was the mean QTcF change from baseline observed following moxifloxacin 400 mg at time point t. If the null hypothesis was rejected, the study had sufficient sensitivity. The Simes method was used for the protection of an experiment-wise 5% type I error [22, 23]. With the Simes method, the original P values corresponding to 0.5, 1, 2, 3, and 4 h post baseline are ordered increasingly, that is, P 1 ≤ P 2 ≤ P 3 ≤ P 4 ≤ P 5. After the Simes correction, the P values were 5P 1, 5P 2/2, 5P 3/3, 5P 4/4, and P 5 respectively. If any of the 5 adjusted P values were <.05, assay sensitivity was claimed. Only the participants who completed all scheduled doses of study medication from day 1 to day 3 and had at least 1 ECG on day −1 (baseline) and at least 1 ECG on day 3 (time-matched day 3 data for the time-matched analysis) were included in the assay sensitivity test.
Electrocardiogram measurements at each time point were calculated as an average of 3 separate ECG extractions or replicates. (Each extraction was the mean of 3 beats.) If fewer than 3 measurements were available, the available samples were averaged (i.e., a minimum of 1 measure was required). For each subject, the time-matched baseline value was subtracted from the QT/QTc intervals to determine the change from baseline in QT/QTc intervals for that subject. The 2 null hypotheses described above were tested in a linear mixed-effect model with a compound symmetry covariance structure. The model included the baseline measure as covariate and treatment, time, and the treatment-by-time interaction as fixed effects, where time was a categorical variable and subject was a random effect.
The time-matched analysis was conducted on the QTcF change from the time-matched baseline as recommended by the ICH E14 guideline. Although modeling change from the time-matched baseline was the primary analysis, the change from the time-averaged baseline was also analyzed using the same model. For the averaged baseline, each triplicate ECG collection was averaged first, and then the averaged baseline was calculated based on all the averaged triplicate ECG and unscheduled ECGs.
as §1

healthy volunteers [5] = experiment: Adverse events and discontinuations; type: in vivo, human
Experimental: as §1, with “Electrocardiogram” for “Standard triplicate 12-lead ECGs were obtained at 9 time points over 24 h at baseline on day 3 and at 2 time points on day 1. Electrocardiogram”

[6] = midostaurin, 24 h post dose on day 3

CO[C@@H]1[C@H](N(C)C(=O)c2ccccc2)C[C@H]2O[C@]1(C)n1c3ccccc3c3c4c(c5c6ccccc6n2c5c31)C(=O)NC4 [Midostaurin, N-benzoylstaurosporin]
overall response rate [1]: 69% | Tmax ([2]; oral, time of peak concentrations post dose, midostaurin dosing, days 1 and 3): 1 h | Cmax ([2]; po, Day 1 (single dose), midostaurin 75 mg oral): 2140 ng/mL | Cmax ([2]; po, Day 3 (twice daily), midostaurin 75 mg oral): 2270 ng/mL | Tmax ([2]; po, Tmax, median (range), Day 1 (single dose), midostaurin 75 mg oral): 1 h | Tmax ([2]; po, Tmax, median (range), Day 3 (twice daily), midostaurin 75 mg oral): 1.1 h | new U-wave abnormalities (healthy volunteers [3]; 12-lead ECG): No new U-wave abnormalities | new post baseline T-wave abnormalities (healthy volunteers [3]; 12-lead ECG): Three | effects on heart rate, atrioventricular conduction, cardiac depolarization (PR and QRS interval durations) (healthy volunteers [3]; midostaurin 75 mg twice daily): no effects on heart rate, atrioventricular conduction, or cardiac depolarization | PR increase ≥25% and resultant PR >200 ms, participants (healthy volunteers [3]; safety set): 0 no. (%) | QRS increase ≥25% and resultant QRS >100 ms, participants (healthy volunteers [3]; safety set): 0 no. (%) | QTcB >60 ms, time-matched change from baseline, participants (healthy volunteers [3]; safety set): 0 no. (%) | QTcF >30 ms, time-matched change from baseline, participants (healthy volunteers [3]; safety set): 0 no. (%) | QTcF >60 ms, time-matched change from baseline, participants (healthy volunteers [3]; safety set): 0 no. (%) | QTcI >30 ms, time-matched change from baseline, participants (healthy volunteers [3]; safety set): 0 no. (%) | QTcI >60 ms, time-matched change from baseline, participants (healthy volunteers [3]; safety set): 0 no. (%) | RR decrease ≥25% and resultant RR <600 ms, participants (healthy volunteers [3]; safety set): 1 (1.3) no. (%) | RR increase ≥25% and resultant RR >1,200 ms, participants (healthy volunteers [3]; safety set): 1 (1.3) no. (%) | QTcF New >450 ms, participants (healthy volunteers [3]; safety set, post baseline): 0 no. (%) | QTcB New >450 ms, participants (healthy volunteers [3]; safety set, post baseline, text: between 450 and 480 ms): 1 (1.3%) no. (%) | QTcB >30 ms, time-matched change from baseline, participants (healthy volunteers [3]; safety set): 1 (1.3) no. (%) | QTcB >30 ms, time-matched change from baseline, participants (healthy volunteers [3]; safety set, listed as midostaurin): 1 (1.3%) no. (%) | QTcF change from time-matched baseline, Difference (Midostaurin – Placebo) (healthy volunteers [4]; 0 h): -2.7 ms | Upper bound of the one-sided 95% CI of Difference (Midostaurin – Placebo) in QTcF change (healthy volunteers [4]; 0 h): 1.3 ms | QTcF change from time-matched baseline, Difference (Midostaurin – Placebo) (healthy volunteers [4]; 0.5 h): -1.9 ms | Upper bound of the one-sided 95% CI of Difference (Midostaurin – Placebo) in QTcF change (healthy volunteers [4]; 0.5 h): 2.1 ms | QTcF change from time-matched baseline, Difference (Midostaurin – Placebo) (healthy volunteers [4]; 1 h): -3.7 ms | Upper bound of the one-sided 95% CI of Difference (Midostaurin – Placebo) in QTcF change (healthy volunteers [4]; 1 h): 0.3 ms | QTcF change from time-matched baseline, Difference (Midostaurin – Placebo) (healthy volunteers [4]; 2 h): -5.1 ms | Upper bound of the one-sided 95% CI of Difference (Midostaurin – Placebo) in QTcF change (healthy volunteers [4]; 2 h): -1.1 ms | QTcF change from time-matched baseline, Difference (Midostaurin – Placebo) (healthy volunteers [4]; 3 h): -3.9 ms | Upper bound of the one-sided 95% CI of Difference (Midostaurin – Placebo) in QTcF change (healthy volunteers [4]; 3 h): 0.1 ms | QTcF change from time-matched baseline, Difference (Midostaurin – Placebo) (healthy volunteers [4]; 4 h): -3.4 ms | Upper bound of the one-sided 95% CI of Difference (Midostaurin – Placebo) in QTcF change (healthy volunteers [4]; 4 h): 0.6 ms | QTcF change from time-matched baseline, Difference (Midostaurin – Placebo) (healthy volunteers [4]; 8 h): -0.7 ms | Upper bound of the one-sided 95% CI of Difference (Midostaurin – Placebo) in QTcF change (healthy volunteers [4]; 8 h): 3.3 ms | QTcF change from time-matched baseline, Difference (Midostaurin – Placebo) (healthy volunteers [4]; 12 h): -0.6 ms | Upper bound of the one-sided 95% CI of Difference (Midostaurin – Placebo) in QTcF change (healthy volunteers [4]; 12 h): 3.4 ms | QTcF change from time-matched baseline, Difference (Midostaurin – Placebo) (healthy volunteers [4]; 24 h): 0.7 ms | Upper bound of the one-sided 95% CI of Difference (Midostaurin – Placebo) in QTcF change (healthy volunteers [4]; 24 h): 4.7 ms | maximum mean QTcF change from time-matched baseline compared with placebo (healthy volunteers [4]; midostaurin 75 mg twice daily days 1-2, once day 3, 24 h post dose on day 3, ECG set): 0.7 ms | QTcF change on day 3 from time-matched baseline (healthy volunteers [4]; 0 h): -3.2 ms | QTcF change on day 3 from time-matched baseline (healthy volunteers [4]; 0.5 h after administration): -5.2 ms | QTcF change on day 3 from time-matched baseline (healthy volunteers [4]; 1 h after administration): -6.3 ms | QTcF change on day 3 from time-matched baseline (healthy volunteers [4]; 2 h after administration): -6.2 ms | QTcF change on day 3 from time-matched baseline (healthy volunteers [4]; 3 h after administration): -5.2 ms | QTcF change on day 3 from time-matched baseline (healthy volunteers [4]; 4 h after administration): -6.4 ms | QTcF change on day 3 from time-matched baseline (healthy volunteers [4]; 8 h after administration): -1.9 ms | QTcF change on day 3 from time-matched baseline (healthy volunteers [4]; 12 h after administration): -3.1 ms | QTcF change on day 3 from time-matched baseline (healthy volunteers [4]; 24 h after administration): -3.9 ms | highest upper bound of 95% CI, QTcF change from time-averaged baseline compared with placebo (healthy volunteers [4]; [6]): 4.9 ms | maximum mean QTcF change from time-averaged baseline compared with placebo (healthy volunteers [4]; [6]): 2.5 ms | Abdominal pain (healthy volunteers [5]; human, in vivo): 4 (5.1) no. (%) | Arthralgia (healthy volunteers [5]; human, in vivo): 0 (0.0) no. (%) | Diarrhea (healthy volunteers [5]; human, in vivo): 25 (31.6) no. (%) | Discontinued, main cause Adverse event(s) (healthy volunteers [5]; human, in vivo): 19 (23.8) no. (%) | Dizziness (healthy volunteers [5]; human, in vivo): 0 (0.0) no. (%) | Dry mouth (healthy volunteers [5]; human, in vivo): 0 (0.0) no. (%) | Dysmenorrhea (healthy volunteers [5]; human, in vivo): 1 (1.3) no. (%) | Dyspepsia (healthy volunteers [5]; human, in vivo): 1 (1.3) no. (%) | Eructation (healthy volunteers [5]; human, in vivo): 3 (3.8) no. (%) | Flatulence (healthy volunteers [5]; human, in vivo): 3 (3.8) no. (%) | Flushing (healthy volunteers [5]; human, in vivo): 2 (2.5) no. (%) | Headache (healthy volunteers [5]; human, in vivo): 5 (6.3) no. (%) | Hiccups (healthy volunteers [5]; human, in vivo): 2 (2.5) no. (%) | Hot flushes (healthy volunteers [5]; human, in vivo): 1 (1.3) no. (%) | Nausea (healthy volunteers [5]; human, in vivo): 30 (38.0) no. (%) | Pollakiuria (healthy volunteers [5]; human, in vivo): 0 (0.0) no. (%) | Rash (healthy volunteers [5]; human, in vivo): 0 (0.0) no. (%) | Salivary hypersecretion (healthy volunteers [5]; human, in vivo): 2 (2.5) no. (%) | Sexually transmitted disease (healthy volunteers [5]; human, in vivo): 1 (1.3) no. (%) | Tachycardia (healthy volunteers [5]; human, in vivo): 2 (2.5) no. (%) | Vomiting (healthy volunteers [5]; human, in vivo): 19 (24.1) no. (%) | Participants with adverse events (healthy volunteers [5]; human, in vivo, 4 day): 43 (54.4) no. (%) | discontinuations because of gastrointestinal events of vomiting (healthy volunteers [5]; midostaurin arm, vomiting within 4 h of dosing): 17 n | Discontinued, main cause Adverse event(s) (healthy volunteers [5]; randomized set): 19 no. (%) | Discontinued, main cause Death (healthy volunteers [5]; randomized set): 0 (0.0) no. (%)
